Molecules are shown by their SMILES. pIC50: −log10 of the molar value.

One assay deals with T1, PLK4 (Homo sapiens, UniProt O00444).
T1 sequence (O00444 1-970): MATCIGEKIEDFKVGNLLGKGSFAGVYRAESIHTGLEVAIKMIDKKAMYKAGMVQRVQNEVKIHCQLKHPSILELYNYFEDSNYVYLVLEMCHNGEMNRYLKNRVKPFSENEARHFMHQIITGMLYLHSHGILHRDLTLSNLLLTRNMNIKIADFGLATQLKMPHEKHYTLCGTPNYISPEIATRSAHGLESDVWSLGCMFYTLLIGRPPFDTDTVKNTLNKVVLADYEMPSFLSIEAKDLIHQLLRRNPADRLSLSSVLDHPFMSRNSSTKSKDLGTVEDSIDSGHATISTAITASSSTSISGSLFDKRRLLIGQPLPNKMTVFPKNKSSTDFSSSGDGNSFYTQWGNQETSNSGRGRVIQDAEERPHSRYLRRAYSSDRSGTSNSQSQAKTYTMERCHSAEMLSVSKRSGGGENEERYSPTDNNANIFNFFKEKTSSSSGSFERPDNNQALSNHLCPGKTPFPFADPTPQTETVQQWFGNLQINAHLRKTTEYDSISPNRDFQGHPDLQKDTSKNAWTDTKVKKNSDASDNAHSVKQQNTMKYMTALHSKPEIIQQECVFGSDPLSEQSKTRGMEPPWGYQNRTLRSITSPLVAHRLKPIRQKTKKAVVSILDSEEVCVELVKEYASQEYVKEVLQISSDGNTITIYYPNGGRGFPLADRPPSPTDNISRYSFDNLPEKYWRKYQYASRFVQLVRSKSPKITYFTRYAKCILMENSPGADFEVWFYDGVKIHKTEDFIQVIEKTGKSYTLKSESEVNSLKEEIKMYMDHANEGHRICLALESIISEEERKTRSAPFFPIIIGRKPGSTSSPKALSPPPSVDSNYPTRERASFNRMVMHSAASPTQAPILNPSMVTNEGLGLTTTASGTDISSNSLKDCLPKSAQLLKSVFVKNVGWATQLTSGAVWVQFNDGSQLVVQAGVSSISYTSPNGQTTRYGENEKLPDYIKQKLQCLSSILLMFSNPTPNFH
Nature of the assay: Activity (IC50) of the Table 1 compounds as PLK4 inhibitors. Format: biochemical. To be noted: Table 1, IC50 class.
As for `COCCN1CCN(c2nc(Sc3ccc(NC(=O)C4CC4)cc3)nc(Nc3cc(C)[nH]n3)c2OC)CC1`, the pIC50 was more than 7.00.

Compound `COc1c(Nc2cc(C)[nH]n2)nc(Sc2ccc(NC(=O)C3CC3)cc2)nc1N1CCN(CCN(C)C)CC1` showed a pIC50 of more than 7.00.

In the case of `Cc1cc(Nc2nc(Sc3ccc(NC(=O)C4CC4)cc3)nc(N(C)C(C)C)c2C)n[nH]1`, the pIC50 is more than 7.00.

Turning to `COCCNc1nc(Sc2ccc(NC(=O)C3CC3)cc2)nc(Nc2cc(C)[nH]n2)c1C`, the pIC50 was more than 7.00.

The compound `Cc1cc(Nc2nc(Sc3ccc(NC(=O)C4CC4)cc3)nc(N3CCCCC3)c2C)n[nH]1` had a pIC50 of more than 7.00.

Take `CNC1CCN(c2nc(Sc3ccc(S(=O)(=O)C(C)(C)c4cccc([N+](=O)[O-])c4F)cc3F)nc(Nc3cc(C)[nH]n3)c2OC)CC1`: the negative-log IC50 (pIC50) was more than 7.00.

`COc1c(Nc2cc(C)[nH]n2)nc(Sc2ccc(S(=O)(=O)C(C)(C)c3cccnc3)cc2)nc1N1CCN(CCN(C)C)CC1` had a pIC50 of more than 7.00.

For `COc1c(Nc2cc(C)[nH]n2)nc(Sc2ccc(S(=O)(=O)C(C)(C)c3cccs3)cc2)nc1N1CCN(CCN(C)C)CC1`, the pIC50 is more than 7.00.

In the case of `COc1c(Nc2cc(C)[nH]n2)nc(Sc2ccc(S(=O)(=O)C(C)(C)C3CC3)cc2)nc1N1CCN(CCN(C)C)CC1`, the pIC50 is more than 7.00.

Take `COc1c(Nc2cc(C)[nH]n2)nc(Sc2ccc(S(=O)(=O)Cc3cccc([N+](=O)[O-])c3F)cc2F)nc1N1CCNCC1`: the negative-log IC50 (pIC50) was more than 7.00.

`COc1c(Nc2cc(C)[nH]n2)nc(Sc2ccc(S(=O)(=O)C(C)(C)c3cccc([N+](=O)[O-])c3)cc2F)nc1N1CCC(CCNC(C)C(F)(F)F)CC1` (stereo not shown) had a pIC50 of more than 7.00.

Compound `COc1c(Nc2cc(C)[nH]n2)nc(Sc2ccc(S(=O)(=O)C(C)(C)c3ccccn3)cc2)nc1N1CCN(CCN(C)C)CC1` had a pIC50 of more than 7.00.

As to `COc1c(Nc2cc(C)[nH]n2)nc(Sc2ccc(S(=O)(=O)C(C)(C)c3nccs3)cc2)nc1N1CCN(CCN(C)C)CC1`, the pIC50 is more than 7.00.

The compound `COc1c(Nc2cc(C)[nH]n2)nc(Sc2ccc(S(=O)(=O)C(C)(C)c3cnccn3)cc2)nc1N1CCN(CCN(C)C)CC1` had a pIC50 of more than 7.00.

In the case of `COc1c(Nc2cc(C)[nH]n2)nc(Sc2ccc(S(=O)(=O)C(C)(C)c3ccncn3)cc2)nc1N1CCN(CCN(C)C)CC1`, the pIC50 is more than 7.00.

Consider `COc1c(Nc2cc(C)[nH]n2)nc(Sc2ccc(S(=O)(=O)Cc3ccccc3)cc2)nc1N1CCN(Cc2ccncc2)CC1`, for which the negative-log IC50 (pIC50) is more than 7.00.

In turn, `COc1c(Nc2cc(C)[nH]n2)nc(Sc2ccc(S(=O)(=O)Cc3cccc(C#N)c3)cc2)nc1N1CCN(CCN(C)C)CC1` had a pIC50 of more than 7.00.

Compound `COc1ccccc1CS(=O)(=O)c1ccc(Sc2nc(Nc3cc(C)[nH]n3)c(OC)c(N3CCN(CCN(C)C)CC3)n2)cc1` had a pIC50 of more than 7.00.

`COc1c(Nc2cc(C)[nH]n2)nc(Sc2ccc(S(=O)(=O)Cc3cccc(C)c3)cc2)nc1N1CCN(CCN(C)C)CC1` gave a pIC50 of more than 7.00.

The compound `COc1cccc(CS(=O)(=O)c2ccc(Sc3nc(Nc4cc(C)[nH]n4)c(OC)c(N4CCN(CCN(C)C)CC4)n3)cc2)c1` had a pIC50 of more than 7.00.

As to `CCOc1c(Nc2cc(C)[nH]n2)nc(Sc2ccc(NC(=O)C3CC3)cc2)nc1N1CCC(O)CC1`, the pIC50 is more than 7.00.

Take `COc1c(Nc2cc(C)[nH]n2)nc(Sc2ccc(NC(C)=O)cc2)nc1N1CCC(O)CC1C` (stereo not shown): the pIC50 is more than 7.00.

`COc1c(Nc2cc(C)[nH]n2)nc(Sc2ccc(NC(C)=O)cc2)nc1N1CCN(CCN2CCOCC2)CC1` had a pIC50 of more than 7.00.

`CC(=O)Nc1ccc(Sc2nc(Nc3cc(C)[nH]n3)c(C)c(N3CCN(CCN4CCCCC4)CC3)n2)cc1`: the pIC50 was more than 7.00.

On to `CC(=O)Nc1ccc(Sc2nc(Nc3cc(C)[nH]n3)c(C)c(N3CCC(OCCN(C)C)CC3)n2)cc1`, for which the pIC50 is more than 7.00.

Take `CC(=O)Nc1ccc(Sc2nc(Nc3cc(C)[nH]n3)c(C)c(N3CCOC[C@@H]3C)n2)cc1`: the pIC50 is more than 7.00.

In the case of `COc1c(Nc2cc(C)[nH]n2)nc(Sc2ccc(NC(C)=O)cc2)nc1N1CCN(CCN2CCCCC2)CC1`, the pIC50 is more than 7.00.

In the case of `COc1c(Nc2cc(C)[nH]n2)nc(Sc2ccc(NC(C)=O)cc2)nc1N1CCN(CCCN(C)C)CC1`, the pIC50 was more than 7.00.

Regarding `COc1c(Nc2cc(C)[nH]n2)nc(Sc2ccc(NC(C)=O)cc2)nc1N1CCC(O)C1` (stereo not shown), the pIC50 is more than 7.00.

For `CSc1nc(Nc2cc(C)[nH]n2)c(C)c(N2CCN(CCN(C)C)CC2)n1`, the pIC50 was more than 7.00.

Take `COc1c(Nc2cc(C)[nH]n2)nc(Sc2ccc(NC(=O)C(F)(F)F)cc2)nc1N1CCN(CCN(C)C)CC1`: the pIC50 was more than 7.00.

`CNC(=O)Nc1ccc(Sc2nc(Nc3cc(C)[nH]n3)c(OC)c(N3CCN(CCN(C)C)CC3)n2)cc1` showed a pIC50 of more than 7.00.

For the compound `CC(=O)Nc1ccc(Sc2nc(Nc3cc(C)[nH]n3)c(C)c(N3CCOC[C@H]3C)n2)cc1`, the pIC50 was more than 7.00.

`COc1c(Nc2cc(C)[nH]n2)nc(Sc2ccc(NC(C)=O)cc2)nc1N1CCN(CCNC(C)=O)CC1` gave a pIC50 of more than 7.00.

Compound `CNCCN1CCN(c2nc(Sc3ccc(NC(C)=O)cc3)nc(Nc3cc(C)[nH]n3)c2OC)CC1` had a pIC50 of more than 7.00.

In turn, `COc1c(Nc2cc(C)[nH]n2)nc(Sc2ccc(S(=O)(=O)Cc3ccccc3F)cc2)nc1N1CCOCC1` gave a pIC50 of more than 7.00.

Consider `COc1c(Nc2cc(C)[nH]n2)nc(Sc2ccc(S(=O)(=O)Cc3ccccc3[N+](=O)[O-])cc2)nc1N1CCN(CCN(C)C)CC1`, for which the pIC50 is more than 7.00.

For `COc1c(Nc2cc(C)[nH]n2)nc(Sc2ccc(NC(C)=O)cc2)nc1N1CCOC[C@@H]1C`, the pIC50 is more than 7.00.

On to `COc1c(Nc2cc(C)[nH]n2)nc(Sc2ccc(NC(C)=O)cc2)nc1N1CCOC[C@H]1C`, for which the pIC50 is more than 7.00.

In the case of `COc1c(Nc2cc(C)[nH]n2)nc(Sc2ccc(NC(N)=O)cc2)nc1N1CCN(CCN(C)C)CC1`, the pIC50 is more than 7.00.

Consider `COc1c(Nc2cc(C)[nH]n2)nc(Sc2ccc(S(=O)(=O)Cc3cccc(C(F)(F)F)c3)cc2)nc1N1CCN(CCN(C)C)CC1`, for which the pIC50 is more than 7.00.

`COc1c(Nc2cc(C)[nH]n2)nc(Sc2ccc(S(=O)(=O)Cc3cccc(F)c3F)cc2)nc1N1CCN(CCN(C)C)CC1` gave a pIC50 of more than 7.00.

For `CC(=O)Nc1ccc(Sc2nc(Cc3cc(C)[nH]n3)c(C)c(NC3CCN(C)CC3)n2)cc1`, the pIC50 is more than 7.00.

With `CC(=O)Nc1ccc(Sc2nc(Nc3cc(C)[nH]n3)c(C)c(NC3CCNCC3)n2)cc1`, the pIC50 was more than 7.00.

On to `COc1c(Nc2cc(C)[nH]n2)nc(Sc2ccc(NC(C)=O)cc2)nc1N1CCN(CC(=O)N(C)C)CC1`, for which the pIC50 is more than 7.00.

On to `COc1c(Nc2cc(C)[nH]n2)nc(Sc2ccc(NC(C)=O)cc2)nc1NC1CCN(C)CC1`, for which the pIC50 is more than 7.00.

The compound `COc1c(Nc2cc(C)[nH]n2)nc(Sc2ccc(NC(C)=O)cc2)nc1N1CCC(C(=O)N(C)C)CC1` showed a pIC50 of more than 7.00.

In the case of `COc1c(Nc2cc(C)[nH]n2)nc(Sc2ccc(S(=O)(=O)Cc3cccc([N+](=O)[O-])c3F)cc2F)nc1N1CCCCC1` [drawing 376], the pIC50 was more than 7.00.

The next assay deals with caspase-3/7 activity in 'Sensitive' neuroblastoma and 'Not Sensitive' (RPE1, BT-12, BT-16) cell lines. In words: Caspase activation assay. Format: cell-based. To be noted: 500 nM centrinone B, four cell cycle durations, compared with centrinone.
For `COc1c(Nc2cc(C)[nH]n2)nc(Sc2ccc(S(=O)(=O)Cc3cccc([N+](=O)[O-])c3F)cc2F)nc1N1CCCCC1` [centrinone B], the caspase activity entry is recorded as “Comparable levels of caspase activity”.

The pIC50 is the IC50 on a negative log10 scale, so that one unit is a factor of ten.

These data come from patent publication US11612604B2, “Methods of treating cancer with PLK4 inhibitors” (LUDWIG INSTITUTE FOR CANCER RESEARCH LTD, priority 2017, dated 2023).
